According to ChEMBL document CHEMBL4507273 (2021):

Assays:
[1] = biological target: 5-hydroxytryptamine receptor 1D (Homo sapiens, UniProt P28221); conditions: Compound concentration 10.0 uM
[2] = biological target: Serine/threonine-protein kinase NLK (Homo sapiens) (UniProt Q9UBE8); conditions: Compound concentration 1000.0 nM
[3] = biological target: Bone morphogenetic protein receptor type-2 (Homo sapiens) (UniProt Q13873); conditions: Compound concentration 1000.0 nM
[4] = biological target: Mast/stem cell growth factor receptor Kit (Homo sapiens) (UniProt P10721); conditions: Compound concentration 1000.0 nM
[5] = biological target: Serine/threonine-protein kinase WNK1 (Homo sapiens) (UniProt Q9H4A3); conditions: Compound concentration 1000.0 nM
[6] = biological target: Dual specificity mitogen-activated protein kinase kinase 3 (Homo sapiens) (UniProt P46734); conditions: Compound concentration 1000.0 nM
[7] = system: Tyrosine-protein kinase ABL1 (Homo sapiens), P00519 [H396P]; conditions: Compound concentration 1000.0 nM
[8] = biological target: Tyrosine-protein kinase ITK/TSK (Homo sapiens) (UniProt Q08881); conditions: Compound concentration 1000.0 nM
[9] = biological target: NT-3 growth factor receptor (Homo sapiens) (UniProt Q16288); conditions: Compound concentration 1000.0 nM
[10] = biological target: T1, Alpha-2B adrenergic receptor (Homo sapiens, UniProt P18089); assay: GPCRScan assay: inhibition of Alpha2B; parameters: radioligand conc. used [nm] 1.5 – 2.0, parental cells HEKT
T1 sequence (P18089 whole entry): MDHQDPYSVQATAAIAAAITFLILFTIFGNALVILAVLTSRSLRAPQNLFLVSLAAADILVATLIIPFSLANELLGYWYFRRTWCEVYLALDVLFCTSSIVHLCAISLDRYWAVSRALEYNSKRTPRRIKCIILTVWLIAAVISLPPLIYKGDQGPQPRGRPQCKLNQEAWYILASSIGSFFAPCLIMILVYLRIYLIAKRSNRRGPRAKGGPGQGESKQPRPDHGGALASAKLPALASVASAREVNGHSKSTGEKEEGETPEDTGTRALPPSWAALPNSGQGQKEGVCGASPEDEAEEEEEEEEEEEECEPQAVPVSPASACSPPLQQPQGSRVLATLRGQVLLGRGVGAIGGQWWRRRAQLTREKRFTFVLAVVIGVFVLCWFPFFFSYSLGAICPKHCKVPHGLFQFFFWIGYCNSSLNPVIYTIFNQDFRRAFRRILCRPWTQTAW

[11] = biological target: Epidermal growth factor receptor (Homo sapiens, UniProt P00533); assay: EGFR kinase inhibition assay
[12] = biological target: Serine/threonine-protein kinase WNK4 (Homo sapiens) (UniProt Q96J92); conditions: Compound concentration 1000.0 nM
[13] = biological target: Cyclin-dependent kinase 3 (Homo sapiens) (UniProt Q00526); conditions: Compound concentration 1000.0 nM
[14] = biological target: T2, Alpha-2A adrenergic receptor (Homo sapiens) (UniProt P08913); conditions: Compound concentration 10.0 uM
T2 sequence (whole entry): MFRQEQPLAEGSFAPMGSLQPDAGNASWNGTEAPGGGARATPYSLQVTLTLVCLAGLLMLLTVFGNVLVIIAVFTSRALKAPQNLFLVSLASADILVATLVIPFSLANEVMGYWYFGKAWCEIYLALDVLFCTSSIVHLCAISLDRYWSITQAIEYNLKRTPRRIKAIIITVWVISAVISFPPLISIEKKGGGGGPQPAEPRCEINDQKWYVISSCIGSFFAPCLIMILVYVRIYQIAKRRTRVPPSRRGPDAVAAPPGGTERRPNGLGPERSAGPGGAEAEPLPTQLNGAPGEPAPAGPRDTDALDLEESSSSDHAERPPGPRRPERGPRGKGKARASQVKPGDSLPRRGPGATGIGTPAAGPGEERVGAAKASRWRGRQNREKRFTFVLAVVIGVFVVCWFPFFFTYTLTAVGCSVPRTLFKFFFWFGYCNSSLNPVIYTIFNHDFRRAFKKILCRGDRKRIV

[15] = biological target: Serine/threonine-protein kinase Nek4 (Homo sapiens) (UniProt P51957); conditions: Compound concentration 1000.0 nM
[16] = biological target: Serine/threonine-protein kinase SIK2 (Homo sapiens) (UniProt Q9H0K1); conditions: Compound concentration 1000.0 nM
[17] = biological target: cAMP-dependent protein kinase catalytic subunit beta (Homo sapiens) (UniProt P22694); conditions: Compound concentration 1000.0 nM
[18] = biological target: Interleukin-1 receptor-associated kinase 1 (Homo sapiens) (UniProt P51617); conditions: Compound concentration 1000.0 nM
[19] = biological target: Dual specificity mitogen-activated protein kinase kinase 5 (Homo sapiens) (UniProt Q13163); conditions: Compound concentration 1000.0 nM
[20] = biological target: Serine/threonine-protein kinase N2 (Homo sapiens) (UniProt Q16513); conditions: Compound concentration 1000.0 nM
[21] = biological target: Serine/threonine-protein kinase 32A (Homo sapiens) (UniProt Q8WU08); conditions: Compound concentration 1000.0 nM
[22] = biological target: Serine/threonine-protein kinase 3 (Homo sapiens) (UniProt Q13188); conditions: Compound concentration 1000.0 nM
[23] = biological target: Aurora kinase A (Homo sapiens) (UniProt O14965); conditions: Compound concentration 1000.0 nM
[24] = biological target: Discoidin domain-containing receptor 2 (Homo sapiens) (UniProt Q16832); conditions: Compound concentration 1000.0 nM
[25] = biological target: Serine/threonine-protein kinase LATS2 (Homo sapiens) (UniProt Q9NRM7); conditions: Compound concentration 1000.0 nM
[26] = biological target: Receptor tyrosine-protein kinase erbB-4 (Homo sapiens) (UniProt Q15303); conditions: Compound concentration 1000.0 nM
[27] = biological target: Mitogen-activated protein kinase kinase kinase 6 (Homo sapiens) (UniProt O95382); conditions: Compound concentration 1000.0 nM

Interleukin-1 receptor-associated kinase 1 (Homo sapiens), sequence (P51617 whole entry, looked up): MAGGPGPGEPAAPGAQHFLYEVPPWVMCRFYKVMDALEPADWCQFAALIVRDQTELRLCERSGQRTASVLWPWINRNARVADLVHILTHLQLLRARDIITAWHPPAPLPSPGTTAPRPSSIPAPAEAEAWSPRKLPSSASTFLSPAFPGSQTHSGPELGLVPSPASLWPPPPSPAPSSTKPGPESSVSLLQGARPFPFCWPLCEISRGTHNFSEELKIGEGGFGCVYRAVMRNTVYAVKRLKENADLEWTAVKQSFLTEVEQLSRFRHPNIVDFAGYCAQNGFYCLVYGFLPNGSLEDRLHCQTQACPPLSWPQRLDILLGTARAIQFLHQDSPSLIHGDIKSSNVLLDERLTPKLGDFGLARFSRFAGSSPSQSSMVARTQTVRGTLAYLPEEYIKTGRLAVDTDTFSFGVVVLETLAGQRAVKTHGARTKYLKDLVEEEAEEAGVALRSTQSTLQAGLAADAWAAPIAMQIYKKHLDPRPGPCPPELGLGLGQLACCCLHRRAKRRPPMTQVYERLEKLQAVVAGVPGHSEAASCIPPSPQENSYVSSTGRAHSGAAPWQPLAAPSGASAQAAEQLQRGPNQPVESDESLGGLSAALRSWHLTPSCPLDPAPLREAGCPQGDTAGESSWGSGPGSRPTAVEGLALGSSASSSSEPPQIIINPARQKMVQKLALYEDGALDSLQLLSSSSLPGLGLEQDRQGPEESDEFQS
Serine/threonine-protein kinase 3 (Homo sapiens), sequence (Q13188 whole entry): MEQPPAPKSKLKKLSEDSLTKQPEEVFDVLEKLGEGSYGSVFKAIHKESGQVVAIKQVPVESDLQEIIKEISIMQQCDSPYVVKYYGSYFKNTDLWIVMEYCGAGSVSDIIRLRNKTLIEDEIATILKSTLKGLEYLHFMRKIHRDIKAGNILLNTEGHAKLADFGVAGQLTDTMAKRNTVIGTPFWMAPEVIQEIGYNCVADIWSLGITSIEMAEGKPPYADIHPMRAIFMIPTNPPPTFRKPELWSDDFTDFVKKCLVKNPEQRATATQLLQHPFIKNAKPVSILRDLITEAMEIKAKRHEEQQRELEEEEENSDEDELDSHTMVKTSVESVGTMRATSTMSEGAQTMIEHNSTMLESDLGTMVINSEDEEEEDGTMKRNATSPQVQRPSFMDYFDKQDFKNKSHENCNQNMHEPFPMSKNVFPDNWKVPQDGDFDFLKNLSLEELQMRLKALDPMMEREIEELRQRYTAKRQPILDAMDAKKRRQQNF
Epidermal growth factor receptor, sequence (P00533 whole entry): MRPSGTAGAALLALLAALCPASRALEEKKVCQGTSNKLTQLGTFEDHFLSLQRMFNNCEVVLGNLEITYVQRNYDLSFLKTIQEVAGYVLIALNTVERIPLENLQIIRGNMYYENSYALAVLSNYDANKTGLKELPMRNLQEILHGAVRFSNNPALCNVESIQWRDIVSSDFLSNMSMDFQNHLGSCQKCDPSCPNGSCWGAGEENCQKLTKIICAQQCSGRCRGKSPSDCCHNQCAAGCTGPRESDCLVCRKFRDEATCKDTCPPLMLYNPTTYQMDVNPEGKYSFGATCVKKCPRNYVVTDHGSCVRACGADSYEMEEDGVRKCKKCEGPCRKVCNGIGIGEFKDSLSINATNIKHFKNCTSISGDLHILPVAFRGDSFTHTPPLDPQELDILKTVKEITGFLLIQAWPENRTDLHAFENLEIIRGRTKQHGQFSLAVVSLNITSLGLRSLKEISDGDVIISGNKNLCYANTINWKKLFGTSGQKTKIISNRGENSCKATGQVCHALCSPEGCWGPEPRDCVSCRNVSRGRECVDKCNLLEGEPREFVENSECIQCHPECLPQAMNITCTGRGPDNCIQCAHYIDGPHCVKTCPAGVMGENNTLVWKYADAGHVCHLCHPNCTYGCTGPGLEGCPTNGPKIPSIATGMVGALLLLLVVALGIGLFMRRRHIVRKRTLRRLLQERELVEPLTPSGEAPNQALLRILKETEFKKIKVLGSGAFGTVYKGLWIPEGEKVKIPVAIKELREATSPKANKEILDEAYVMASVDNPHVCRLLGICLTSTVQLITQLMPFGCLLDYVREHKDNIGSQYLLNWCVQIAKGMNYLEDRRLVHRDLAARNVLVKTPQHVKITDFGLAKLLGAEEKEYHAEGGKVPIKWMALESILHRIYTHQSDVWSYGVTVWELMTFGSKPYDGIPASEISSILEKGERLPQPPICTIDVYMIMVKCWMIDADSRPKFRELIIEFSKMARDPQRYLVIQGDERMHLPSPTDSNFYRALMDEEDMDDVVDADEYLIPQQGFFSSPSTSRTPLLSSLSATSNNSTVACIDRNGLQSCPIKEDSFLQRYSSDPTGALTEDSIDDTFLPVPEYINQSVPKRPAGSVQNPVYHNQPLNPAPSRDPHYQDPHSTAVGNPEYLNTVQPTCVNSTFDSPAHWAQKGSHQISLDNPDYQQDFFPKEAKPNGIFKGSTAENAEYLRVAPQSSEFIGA
Serine/threonine-protein kinase SIK2 (Homo sapiens), sequence (Q9H0K1 whole entry, looked up): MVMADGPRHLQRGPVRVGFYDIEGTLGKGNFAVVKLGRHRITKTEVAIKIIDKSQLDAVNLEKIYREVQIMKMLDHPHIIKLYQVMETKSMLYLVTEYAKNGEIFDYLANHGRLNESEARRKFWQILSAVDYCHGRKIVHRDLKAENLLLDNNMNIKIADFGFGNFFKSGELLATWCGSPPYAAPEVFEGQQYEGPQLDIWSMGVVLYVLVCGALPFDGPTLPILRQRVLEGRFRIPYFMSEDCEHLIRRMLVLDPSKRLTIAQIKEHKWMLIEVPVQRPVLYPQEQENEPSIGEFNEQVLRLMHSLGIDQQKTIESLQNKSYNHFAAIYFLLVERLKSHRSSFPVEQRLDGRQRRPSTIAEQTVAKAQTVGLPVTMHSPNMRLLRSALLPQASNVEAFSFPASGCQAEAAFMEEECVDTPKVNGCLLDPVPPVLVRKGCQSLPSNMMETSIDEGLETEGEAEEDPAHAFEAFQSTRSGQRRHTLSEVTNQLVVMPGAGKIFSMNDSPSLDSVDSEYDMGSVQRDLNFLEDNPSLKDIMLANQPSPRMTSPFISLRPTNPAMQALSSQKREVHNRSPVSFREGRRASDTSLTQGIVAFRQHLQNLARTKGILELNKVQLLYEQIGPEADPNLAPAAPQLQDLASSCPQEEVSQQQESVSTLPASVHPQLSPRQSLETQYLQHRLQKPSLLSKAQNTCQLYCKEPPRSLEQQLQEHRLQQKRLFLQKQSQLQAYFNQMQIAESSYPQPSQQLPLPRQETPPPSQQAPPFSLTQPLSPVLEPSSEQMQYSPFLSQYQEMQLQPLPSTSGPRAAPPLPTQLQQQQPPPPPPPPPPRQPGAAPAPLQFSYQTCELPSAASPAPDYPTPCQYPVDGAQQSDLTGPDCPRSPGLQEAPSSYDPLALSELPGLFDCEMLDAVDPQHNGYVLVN
Bone morphogenetic protein receptor type-2 (Homo sapiens), sequence (Q13873 whole entry): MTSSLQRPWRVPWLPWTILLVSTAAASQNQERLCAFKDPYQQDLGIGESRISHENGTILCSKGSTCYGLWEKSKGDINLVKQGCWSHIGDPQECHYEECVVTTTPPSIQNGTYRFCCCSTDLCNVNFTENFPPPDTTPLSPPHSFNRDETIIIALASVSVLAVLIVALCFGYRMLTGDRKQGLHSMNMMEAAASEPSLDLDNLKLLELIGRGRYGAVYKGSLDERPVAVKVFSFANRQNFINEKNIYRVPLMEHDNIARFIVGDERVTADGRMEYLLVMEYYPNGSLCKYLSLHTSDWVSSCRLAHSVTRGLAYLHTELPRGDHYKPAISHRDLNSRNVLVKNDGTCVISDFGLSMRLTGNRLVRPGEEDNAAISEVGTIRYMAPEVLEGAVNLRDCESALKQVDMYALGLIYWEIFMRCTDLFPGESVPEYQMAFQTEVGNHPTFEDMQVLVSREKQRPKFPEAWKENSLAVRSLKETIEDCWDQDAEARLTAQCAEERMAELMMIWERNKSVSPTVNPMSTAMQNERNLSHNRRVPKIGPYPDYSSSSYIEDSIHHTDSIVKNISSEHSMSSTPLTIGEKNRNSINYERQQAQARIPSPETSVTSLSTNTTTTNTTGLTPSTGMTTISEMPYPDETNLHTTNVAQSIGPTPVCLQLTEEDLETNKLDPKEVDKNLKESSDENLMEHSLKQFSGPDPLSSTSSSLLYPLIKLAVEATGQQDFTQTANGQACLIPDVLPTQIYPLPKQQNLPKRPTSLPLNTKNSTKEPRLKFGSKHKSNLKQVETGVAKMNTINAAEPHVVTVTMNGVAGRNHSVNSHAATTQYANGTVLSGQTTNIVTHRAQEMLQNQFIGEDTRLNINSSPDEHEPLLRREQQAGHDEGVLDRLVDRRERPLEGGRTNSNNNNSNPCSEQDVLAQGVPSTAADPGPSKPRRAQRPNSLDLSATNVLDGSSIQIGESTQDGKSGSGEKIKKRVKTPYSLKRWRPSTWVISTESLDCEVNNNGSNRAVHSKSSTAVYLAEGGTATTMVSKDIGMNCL
Tyrosine-protein kinase ITK/TSK (Homo sapiens), sequence (Q08881 whole entry): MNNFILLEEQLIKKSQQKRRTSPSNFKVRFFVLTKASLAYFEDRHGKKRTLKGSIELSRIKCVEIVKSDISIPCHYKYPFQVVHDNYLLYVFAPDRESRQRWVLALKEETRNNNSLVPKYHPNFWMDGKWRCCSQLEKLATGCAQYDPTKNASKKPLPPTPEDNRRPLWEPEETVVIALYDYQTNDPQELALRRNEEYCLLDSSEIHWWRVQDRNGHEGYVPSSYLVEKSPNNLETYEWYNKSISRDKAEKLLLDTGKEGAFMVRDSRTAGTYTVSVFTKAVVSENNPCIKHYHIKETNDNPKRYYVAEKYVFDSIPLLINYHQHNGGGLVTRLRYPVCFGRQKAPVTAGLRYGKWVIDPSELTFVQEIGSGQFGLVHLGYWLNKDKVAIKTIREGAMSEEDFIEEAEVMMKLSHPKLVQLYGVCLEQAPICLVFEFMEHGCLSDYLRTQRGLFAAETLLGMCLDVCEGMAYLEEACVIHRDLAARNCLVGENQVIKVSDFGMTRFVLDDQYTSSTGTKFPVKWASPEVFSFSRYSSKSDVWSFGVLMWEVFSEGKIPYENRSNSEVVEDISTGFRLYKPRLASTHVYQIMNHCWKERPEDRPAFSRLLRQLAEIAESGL

CNCc1ccccc1-c1csc([C@@H](C)Nc2nc(C)nc3cc(OC)c(OC)cc23)c1 [BAY-293]
inhibition [1]: 98.1% | residual activity [2]: 84% | residual activity [3]: 100% | residual activity [4]: 81% | residual activity [5]: 88% | residual activity [6]: 80% | residual activity [7]: 93% | residual activity [8]: 100% | residual activity [9]: 88% | Ki ([10]; read-out: Ki): 1.23 µM | IC50 [11]: > 20 µM (not active) | residual activity [12]: 100% | residual activity [13]: 100% | inhibition [14]: 99% | residual activity [15]: 83% | residual activity [16]: 100% | residual activity [17]: 100% | residual activity [18]: 71% | residual activity [19]: 91% | residual activity [20]: 89% | residual activity [21]: 76% | residual activity [22]: 85% | residual activity [23]: 73% | residual activity [24]: 92% | residual activity [25]: 98% | residual activity [26]: 97% | residual activity [27]: 99%

CNCc1ccccc1-c1csc([C@H](C)Nc2nc(C)nc3cc(OC)c(OC)cc23)c1 [BAY-294]
inhibition [1]: 98.9% | residual activity [2]: 100% | residual activity [3]: 100% | residual activity [4]: 70% | residual activity [5]: 100% | residual activity [6]: 98% | residual activity [7]: 95% | residual activity [8]: 100% | residual activity [9]: 100% | Ki ([10]; read-out: Ki): 0.847 µM | Ki ([10]; read-out: pKi (converted)): 0.813 µM | IC50 [11]: > 20 µM (not active) | residual activity [12]: 90% | residual activity [13]: 100% | residual activity [15]: 83% | residual activity [16]: 100% | residual activity [17]: 100% | residual activity [18]: 80% | residual activity [19]: 87% | residual activity [20]: 90% | residual activity [21]: 91% | residual activity [22]: 89% | residual activity [23]: 73% | residual activity [24]: 94% | residual activity [25]: 95% | residual activity [26]: 100% | residual activity [27]: 100%
